Reference: patent publication US20070167353A1, “PRODRUG COMPOSITION” (priority 2003, published 2007)

Legend:
HPEPT1 [1] = molecular target: T1, HPEPT1 (Homo sapiens, UniProt P46059); assay: Inhibition of radiolabelled Gly-Sar uptake in DC5 cells overexpressing HPEPT1; assay type: cell-based; set-up: expressed in transfected cells; host or cells: HeLa cells overexpressing hPEPT1 (called 'HPEPT1 infected cells'); conditions: inhibition of Gly-Sar uptake, DC5 cells overexpressing HPEPT1, 10 min, 37° C.; read-out: DC5 IC50
T1 sequence (P46059 1-708): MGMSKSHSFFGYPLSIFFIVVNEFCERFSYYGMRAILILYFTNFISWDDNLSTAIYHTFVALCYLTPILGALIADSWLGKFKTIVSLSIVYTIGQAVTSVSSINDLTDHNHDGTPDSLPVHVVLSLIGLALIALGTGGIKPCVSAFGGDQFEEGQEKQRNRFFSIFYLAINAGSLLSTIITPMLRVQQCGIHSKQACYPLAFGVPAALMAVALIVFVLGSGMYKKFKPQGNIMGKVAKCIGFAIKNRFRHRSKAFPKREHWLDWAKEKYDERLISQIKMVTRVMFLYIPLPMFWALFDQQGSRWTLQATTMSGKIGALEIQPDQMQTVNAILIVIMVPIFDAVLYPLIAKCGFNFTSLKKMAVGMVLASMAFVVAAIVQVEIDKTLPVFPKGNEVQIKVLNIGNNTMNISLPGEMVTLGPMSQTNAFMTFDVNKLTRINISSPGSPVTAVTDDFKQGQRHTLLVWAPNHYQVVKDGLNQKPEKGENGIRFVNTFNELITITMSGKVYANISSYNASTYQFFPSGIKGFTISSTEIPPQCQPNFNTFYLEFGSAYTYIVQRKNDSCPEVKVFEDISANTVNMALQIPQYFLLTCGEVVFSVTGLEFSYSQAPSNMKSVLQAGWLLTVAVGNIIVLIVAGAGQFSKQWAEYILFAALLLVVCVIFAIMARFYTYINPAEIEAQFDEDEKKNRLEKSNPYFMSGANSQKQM
Procedure: Amino acid prodrugs are tested for their interaction with the dipeptide transporter, HPEPT1, using tissue culture cells that are engineered to overexpress HPEPT1. In this example, the cells that overexpress HPEPT1, termed DC5, are a human meduloblastoma cell line that is stably transfected with a eukaryotic expression vector encoding HPEPT1. […] DC5 cells are plated at a density of 12,000 cells/well in 96-well tissue culture plates and allowed to grow for 2 days. The cells are washed once with 200 microliters of uptake buffer and aspirated. The plates are cooled to 4° C. and 25 ul of uptake buffer containing 125 nanomoles Gly-Sar (at a specific activity of 1 microcurie/micromole) is added. The uptake buffer also contains the prodrugs to be tested at concentrations ranging from 10 micromolar to 20 millimolar. The assay is initiated by placing the plate in a shaking water bath at 37° C. and is terminated after 10 min by rapid washing with multiple changes of 4° C. phosphate buffered saline (PBS). The radioactive Gly-Sar peptide that is transported by the hpept1 is extracted from the cell layer with 200 ul of a one to one mixture of methanol and water and is counted in 4 ml of CytoScint ES™ scintillation cocktail (ICN). The data are plotted as % Gly-Sar uptake of control (no competitive substrate) versus the competitive substrate concentration. […] Typically, values that are below 10 mM indicate that the drug interacts with transporter.

HPEPT1 [2] = molecular target: T1, HPEPT1; conditions: for Uptake (hPepT1): HeLa cells overexpressing HPEPT1, 50 micromolar, pH 6.0, 45 minutes; for hPepT1/Control: ratio of uptake in hPepT1 cells versus control cells
[3] = molecular target: T2, biphenyl hydrolase-like enzyme (BPHL) (Homo sapiens, UniProt Q86WA6); assay type: biochemical
T2 sequence (Q86WA6 38-291): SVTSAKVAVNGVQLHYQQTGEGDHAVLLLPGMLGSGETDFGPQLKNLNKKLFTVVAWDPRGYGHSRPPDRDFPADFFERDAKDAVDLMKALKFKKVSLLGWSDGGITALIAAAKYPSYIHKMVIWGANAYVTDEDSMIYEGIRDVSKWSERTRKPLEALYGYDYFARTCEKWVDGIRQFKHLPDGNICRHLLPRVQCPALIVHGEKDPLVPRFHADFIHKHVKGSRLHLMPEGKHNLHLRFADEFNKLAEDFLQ

[4] = not given; remark: listed apart in the source
[5] = not given; remark: listed apart in the source

Compound	IC50 (HPEPT1 [1]) [µM]	Uptake (hPepT1) (HPEPT1 [2]) [nmole/mg/45 min]	hPepT1/Control (HPEPT1 [2])	% of Control (VACV) [3] [%]	t1/2 Caco-2 cell homogenates [min]	t1/2 Human plasma [4] [min]	t1/2 Buffer pH 7.4 [5] [min]
N[C@@H](Cc1ccccc1)C(=O)OC[C@H]1O[C@@H](n2cc(F)c(=O)[nH]c2=O)C[C@@H]1O [5′-O-phenylalanyl-Floxuridine]	3700	1.58 ± 0.20	12.34	52.8	–	–	–
CC(C)C(N)C(=O)OC[C@H]1O[C@@H](n2cc(F)c(=O)[nH]c2=O)C[C@@H]1OC(=O)C(N)C(C)C (some centres unmarked) [3′,5′-di-O-valyl-Floxuridine]	1600	2.78 ± 0.37	5.18	1.7	–	–	–
CC[C@H](C)[C@H](N)C(=O)OC[C@H]1O[C@@H](n2ccc(N)nc2=O)C(F)(F)[C@@H]1O [5′-O-L-isoleucyl gemcitabine]	610	1.22 ± 0.05	5.64	–	75.3 ± 2.8	99.2 ± 1.6	452.0 ± 9.6
NCCCC[C@H](N)C(=O)O[C@H]1C[C@H](n2cc(F)c(=O)[nH]c2=O)O[C@@H]1CO [3′ lysyl monoester Floxuridine]	–	–	–	7.3	–	–	–
CC[C@H](C)[C@H](N)C(=O)O[C@@H]1[C@@H](CO)O[C@@H](n2ccc(N)nc2=O)C1(F)F [3′-O-L-isoleucyl gemcitabine]	2180	1.03 ± 0.11	1.09	–	10.6 ± 0.3	8.0 ± 0.1	66.0 ± 0.21
CC(C)[C@H](N)C(=O)OC[C@H]1O[C@@H](n2ccc(N)nc2=O)C(F)(F)[C@@H]1OC(=O)[C@@H](N)C(C)C [3′,5′-di-O-L-valyl Gemcitabine]	1720	1.76 ± 0.09	1.15	–	0.9 ± 0.0	2.0 ± 0.1	55.0 ± 2.7
NC(CC(=O)O)C(=O)OC1CC(n2cc(F)c(=O)[nH]c2=O)OC1CO (centres unmarked) [3′-O-aspartyl-Floxuridine]	10500	–	–	2.0	–	–	–
CC(C)[C@H](N)C(=O)OC[C@H]1O[C@@H](n2ccc(N)nc2=O)C(F)(F)[C@@H]1O [5′-O-L-valyl Gemcitabine]	700	2.14 ± 0.05	11.25	–	7.1 ± 0.6	56.4 ± 2.9	416.0 ± 8.5
NC(CC(=O)O)C(=O)OCC1OC(n2cc(F)c(=O)[nH]c2=O)CC1OC(=O)C(N)CC(=O)O (centres unmarked) [3′,5′-di-O-aspartyl-Floxuridine]	9550	–	–	0.0	–	–	–
CC[C@H](C)[C@H](N)C(=O)OC[C@H]1O[C@@H](n2ccc(N)nc2=O)C(F)(F)[C@@H]1OC(=O)[C@@H](N)[C@@H](C)CC [3′,5′-di-O-L-isoleucyl gemcitabine]	820	1.16 ± 0.13	1.06	–	2.1 ± 0.0	2.64 ± 0.0	61.0 ± 0.5
NC(CC(=O)O)C(=O)OCC1OC(n2cc(F)c(=O)[nH]c2=O)CC1O (centres unmarked) [5′-O-aspartyl-Floxuridine]	8300	–	–	2.3	–	–	–
NCCCC[C@H](N)C(=O)OC[C@H]1O[C@@H](n2cc(F)c(=O)[nH]c2=O)C[C@@H]1O [5′ lysyl monoester Floxuridine]	–	–	–	8.1	–	–	–
NCCCCC(N)C(=O)OCC1OC(n2cc(F)c(=O)[nH]c2=O)CC1OC(=O)C(N)CCCCN (centres unmarked) [3′,5′ lysyl diester Floxuridine]	–	–	–	0.0	–	–	–
CC(C)[C@H](N)C(=O)O[C@@H]1[C@@H](CO)O[C@@H](n2ccc(N)nc2=O)C1(F)F [3′-O-L-valyl Gemcitabine]	3690	1.12 ± 0.07	1.11	–	5.0 ± 0.1	5.4 ± 0.1	64.0 ± 1.4
